{"source": "patent US20170332691A1", "about": "“NUTRITIONAL COMPOSITIONS COMPRISING SN-1 (3) MONOACYLGLYCEROLS FOR USE IN THE TREATMENT OF MALABSORPTION OR MALDIGESTION IN INFANTS OR YOUNG CHILDREN” (NESTEC S.A., priority 2014, published 2017)", "key": {"[1]": {"test": "lipid maldigestion or malabsorption rat model (XENICAL/Orlistat), EPA in red blood cells and tissues", "type": "in vivo", "settings": "for level of EPA incorporated in red blood cells: rats fed with XENICAL, day 7 (FIG. 3)", "procedure": "The concept was tested in a lipid maldigestion or malabsorption rat model. The maldigestion or malabsorption condition was obtained using XENICAL® (ORLISTAT, tetrahydrolipstatin), a pancreatic and gastric lipases inhibitor. Rats were fed during 21 days with long-chain polyunsaturated fatty acid (LC-PUFA) supplements containing mainly eicosapentaenoic (EPA) acid. Fish oil was used as a source of triacylglycerols, and different EPA glycerides were evaluated: […] XENICAL® (ORLISTAT) was given at a level sufficient to decrease lipid absorption by 40%. A group receiving fish oil without XENICAL® (ORLISTAT) was used as a positive control. At different time intervals (D3, D7, […]), the fatty acid profiles of red blood cells and plasma lipids were determined. At the end of the experiment, the fatty acid profiles of different tissues were determined. The main objective was to follow the level of EPA in red blood cells and plasma lipids. The main comparison evaluated was the difference in EPA level between the group receiving EPA glycerides such as EPA-containing sn-1(3) MAG, in combination with XENICAL® (ORLISTAT) and the positive control group (fish oil+XENICAL® (ORLISTAT))."}, "[2]": {"test": "clinical study: sn-1(3) MAG vs fish oil (TAG) delivering EPA under XENICAL-induced lipid maldigestion", "type": "in vivo, human", "procedure": "This clinical study compared the efficacy of sn-1(3) MAG and fish oil (TAG) in delivering EPA in humans under lipid maldigestion conditions induced by XENICAL® (ORLISTAT). The comparison was tested in volunteers treated with XENICAL® to induce lipid maldigestion or not treated with XENICAL® (ORLISTAT). The primary objective was to assess accretion of EPA in erythrocytes over 21 days when consumed as fish oil (TAG) or sn-1(3) MAG. The secondary objectives were to assess accretion of EPA in plasma over 21 days and also to assess the pharmacokinetics of EPA after an acute dose either in the form of sn-1(3) MAG or TAG (AUC in chylomicrons over 10 hours postprandial). See FIG. 4 that describes the clinical study timeline."}}, "data": [{"molecule": "CC/C=C\\C/C=C\\C/C=C\\C/C=C\\C/C=C\\CCCC(=O)OCC(O)CO", "note": "(stereo not shown) [Sn-1(3)-MAG-EPA, sn-1(3)-monoeicosapentaenoylglycerol]", "values": [{"measurement": "level of EPA incorporated in red blood cells", "setting": "[1]; compared with fish oil + XENICAL, all P values lower than 0.05", "result": "statistically higher"}, {"measurement": "level of EPA incorporated in red blood cells", "setting": "[1]; compared with fish oil group without XENICAL", "result": "even higher than the fish oil group"}, {"measurement": "incorporation of LC-PUFAs in tissue", "setting": "[1]; rats with XENICAL, comparing groups A, B and C", "result": "improved"}, {"measurement": "carrier for EPA (overall conclusion of the clinical trial)", "setting": "[2]; human subjects treated with XENICAL, vs fish oil (TAG)", "result": "better carrier for EPA than fish oil (TAG)"}, {"measurement": "accretion of EPA in erythrocytes after 21 days (chronic effect)", "setting": "[2]; humans, with XENICAL, in comparison to fish oil and XENICAL, p=0.0001 (FIG. 6)", "result": "statistically significant"}, {"measurement": "accretion of EPA in plasma after 21 days (chronic effect)", "setting": "[2]; humans, with XENICAL, relative to fish oil and XENICAL, p=0.0003 (FIG. 7)", "result": "statistically significant"}]}, {"molecule": "CCCCCCCCCCC[C@@H](C[C@@H]1OC(=O)[C@H]1CCCCCC)OC(=O)[C@H](CC(C)C)NC=O", "note": "[XENICAL® (ORLISTAT), tetrahydrolipstatin, reference compound]", "values": [{"measurement": "EPA incorporation in red blood cells", "setting": "[1]; rats fed fish oil with XENICAL vs fish oil without XENICAL, day 7", "result": "decreases EPA incorporation in red blood cells"}]}]}
